Experimental data reported in PubChem BioAssay (NCI).
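Five compound concentrations were applied to cells in 96-well plates for 48 hours; endpoints were derived by simple linear interpolation of the resulting dose-response curve. Abbreviation: GI50, concentration required for 50% inhibition of growth. Definition used: TGI = concentration required for complete inhibition of growth.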

What was measured:
Experiment in all cases: NCI tumour cell line growth inhibition, 48 h
MALME-3M melanoma = system: MALME-3M melanoma
NCI/ADR-RES ovarian = system: NCI/ADR-RES ovarian
T-47D breast = system: T-47D breast
SN12C renal = system: SN12C renal
SF-295 CNS = system: SF-295 CNS
OVCAR-4 ovarian = system: OVCAR-4 ovarian
OVCAR-8 ovarian = system: OVCAR-8 ovarian
TK-10 renal = system: TK-10 renal
RXF 393 renal = system: RXF 393 renal
BT-549 breast = system: BT-549 breast
HS 578T breast = system: HS 578T breast
MDA-MB-468 breast = system: MDA-MB-468 breast
DU-145 prostate = system: DU-145 prostate
KM12 colon = system: KM12 colon
ACHN renal = system: ACHN renal
IGROV1 ovarian = system: IGROV1 ovarian
CAKI-1 renal = system: CAKI-1 renal
OVCAR-5 ovarian = system: OVCAR-5 ovarian
MDA-MB-435 = system: MDA-MB-435
COLO 205 colon = system: COLO 205 colon
MOLT-4 leukemia = system: MOLT-4 leukemia
HOP-62 NSCLC = system: HOP-62 NSCLC
PC-3 prostate = system: PC-3 prostate
SK-MEL-5 melanoma = system: SK-MEL-5 melanoma
UACC-62 melanoma = system: UACC-62 melanoma
U251 CNS = system: U251 CNS
SK-MEL-2 melanoma = system: SK-MEL-2 melanoma
SK-OV-3 ovarian = system: SK-OV-3 ovarian
NCI-H23 lung = system: NCI-H23 lung
MCF7 breast = system: MCF7 breast
M14 melanoma = system: M14 melanoma
SNB-75 CNS = system: SNB-75 CNS
SF-268 CNS = system: SF-268 CNS
MDA-MB-231 breast = system: MDA-MB-231 breast
K-562 leukemia = system: K-562 leukemia
NCI-H522 lung = system: NCI-H522 lung
SK-MEL-28 melanoma = system: SK-MEL-28 melanoma
SF-539 CNS = system: SF-539 CNS
EKVX NSCLC = system: EKVX NSCLC
NCI-H460 lung = system: NCI-H460 lung
NCI-H226 lung = system: NCI-H226 lung
A549 NSCLC = system: A549 NSCLC
UACC-257 melanoma = system: UACC-257 melanoma
A498 renal = system: A498 renal
SNB-19 CNS = system: SNB-19 CNS
HOP-92 NSCLC = system: HOP-92 NSCLC
UO-31 renal = system: UO-31 renal

## Cn1cc(-c2cc(N)n3nc(-c4c[nH]c5ccccc45)cc3n2)c2cccnc21
MALME-3M melanoma
  GI50: 3.25 µM
  TGI: 17.1 µM
NCI/ADR-RES ovarian
  GI50: 4.66 µM
  TGI: > 100 µM
T-47D breast
  GI50: 2.99 µM
  TGI: 13.1 µM
SN12C renal
  GI50: 11.6 µM
  TGI: 42.1 µM
SF-295 CNS
  GI50: 1.99 µM
  TGI: 4.74 µM
OVCAR-4 ovarian
  GI50: 3.42 µM
  TGI: > 100 µM
OVCAR-8 ovarian
  GI50: 4.63 µM
  TGI: > 100 µM
TK-10 renal
  GI50: 17.1 µM
  TGI: 59.3 µM
RXF 393 renal
  GI50: 2.28 µM
  TGI: 8.2 µM
BT-549 breast
  GI50: 11.8 µM
  TGI: 33.6 µM
HS 578T breast
  GI50: 20 µM
  TGI: > 100 µM
MDA-MB-468 breast
  GI50: 2.22 µM
  TGI: 6.42 µM
DU-145 prostate
  GI50: 5.09 µM
  TGI: > 100 µM
KM12 colon
  GI50: 3.34 µM
  TGI: 14.7 µM
ACHN renal
  GI50: 3.77 µM
  TGI: 21.1 µM
IGROV1 ovarian
  GI50: 19.1 µM
  TGI: 55.9 µM
CAKI-1 renal
  GI50: 3.85 µM
  TGI: 44.8 µM
OVCAR-5 ovarian
  GI50: 11 µM
  TGI: 39.1 µM
MDA-MB-435
  GI50: 11 µM
  TGI: 29.5 µM
COLO 205 colon
  GI50: 10.7 µM
  TGI: 45.1 µM
MOLT-4 leukemia
  GI50: 3.32 µM
  TGI: > 100 µM
HOP-62 NSCLC
  GI50: 6.15 µM
  TGI: 59.7 µM
PC-3 prostate
  GI50: 3.83 µM
  TGI: 23.6 µM
SK-MEL-5 melanoma
  GI50: 7.04 µM
  TGI: 20.5 µM
UACC-62 melanoma
  GI50: 5.71 µM
  TGI: 21.7 µM
U251 CNS
  GI50: 3.34 µM
  TGI: > 100 µM
SK-MEL-2 melanoma
  GI50: 12.5 µM
  TGI: 43.1 µM
SK-OV-3 ovarian
  GI50: 20.6 µM
  TGI: 69.5 µM
NCI-H23 lung
  GI50: 19 µM
  TGI: 73.6 µM
MCF7 breast
  GI50: 3.3 µM
  TGI: > 100 µM
M14 melanoma
  GI50: 2.63 µM
  TGI: 6.79 µM
SNB-75 CNS
  GI50: 2.44 µM
  TGI: 44.2 µM
SF-268 CNS
  GI50: 17.9 µM
  TGI: 81.9 µM
MDA-MB-231 breast
  GI50: 3.4 µM
  TGI: 28.8 µM
K-562 leukemia
  GI50: 2.79 µM
  TGI: > 100 µM
NCI-H522 lung
  GI50: 5.54 µM
  TGI: 35.9 µM
SK-MEL-28 melanoma
  GI50: 5.33 µM
  TGI: 20.2 µM
SF-539 CNS
  GI50: 2.58 µM
  TGI: 7.31 µM
EKVX NSCLC
  GI50: 15.3 µM
  TGI: > 100 µM
NCI-H460 lung
  GI50: 3.56 µM
  TGI: > 100 µM
NCI-H226 lung
  GI50: 14.1 µM
  TGI: > 100 µM
A549 NSCLC
  GI50: 4.19 µM
  TGI: > 100 µM
UACC-257 melanoma
  GI50: 13.7 µM
  TGI: 33.5 µM
A498 renal
  GI50: 23 µM
  TGI: 54.8 µM
SNB-19 CNS
  GI50: 14.8 µM
  TGI: 31.4 µM
HOP-92 NSCLC
  GI50: 5.81 µM
  TGI: 27.8 µM
UO-31 renal
  GI50: 5.41 µM
  TGI: 26.6 µM
